Patent US20150374718A1, “Zhankuic Acid A and Analogs thereof and Their Use as an Anti-Inflammatory Agent” (National Cheng Kung University, priority 2014, published 2015)
“Also recorded” adds a separate entry of the source.

Experiments:
COX2 and iNOS = test: Immunoblot of COX2 and iNOS in LPS-stimulated peritoneal macrophages; assay type: cell-based, murine; conditions: ZAA 1 h, then LPS 0.5 μg/mL 24 h; dose-dependent
Protocol: (§1) FIG. 1. ZAA inhibits the production of inflammation-related molecules in LPS- and IFN-γ-stimulated murine macrophages. […] Total cell lysates were subjected to immunoblotting for detecting COX2 and iNOS. Relative expression levels of COX2 and iNOS protein were quantified by densitometric analysis with ImageJ software and normalized according to the β-actin reference band. […] The presence of nitrite in the culture medium was analyzed by the Griess assay and used as an indication of NO levels (n=4; *p<0.05 and ***p<0.001 vs. LPS- or IFN-γ-induced cells). (C) Raw264.7 cells were cotransfected with pNFKB-Luc and pβ-actin-LacZ plasmids. […] Total cell lysates were harvested, and their luciferase activities were determined and normalized on the basis of β-galactosidase activities. Values are means±SD (n=4; *p<0.05 and **p<0.01 vs. LPS-stimulated cells). […] Numbers below the blots in D and those shown in the table below the blots in E represent the relative expression levels quantified by densitometric analysis with ImageJ software and normalized according to the β-actin reference bands. […]
(§2) C57BL/6 mice were injected intraperitoneally with 3% thioglycollate, and their peritoneal macrophages were collected 72 h later. […] The presence of nitrite (a metabolite of NO) in the culture medium was analyzed by the Griess assay (Sigma-Aldrich), as previously described (16).

NO production = test: Griess assay of nitrite (NO) in macrophage culture medium; assay type: cell-based, murine; conditions: ZAA 1 h, dose-dependent
Protocol: as §1, §2

[1] = test system: murine peritoneal macrophages; test: Cell viability by MTS and SRB assays; assay type: cell-based; conditions: up to 30 μM for 72 h; resident or LPS-activated macrophages; listed as ZAA
Protocol: FIG. 6. ZAA is not cytotoxic to murine peritoneal macrophages. (A) Cells were incubated with various concentrations of ZAA for 72 h. Cell viability was determined by colorimetric tetrazolium (MTS) and sulphorhodamine B (SRB) assays. The absorbance was measured at 490 and 590 nm for MTS and SRB assays, respectively. […] Cell viability was determined by the SRB assay.
We first investigated the anti-inflammatory properties of ZAA purified from T. camphoratus. During inflammation, large amounts of pro-inflammatory mediators, NO, and prostaglandin E2 (PGE2) are generated by iNOS and COX2.

[2] = test system: NF-κB-mediated transactivation in Raw264.7 cells; test: NF-κB luciferase reporter assay; assay type: cell-based, murine; conditions: ZAA 1 h, then LPS 24 h
Protocol: as §1, with “activities.” for “activities. Values are means±SD (n=4; *p<0.05 and **p<0.01 vs. LPS-stimulated cells).”
Subconfluent Raw264.7 cells cultured in 24-well plates were cotransfected with p-NFκB-Luc and pβ-actin-LacZ plasmids using the Neon Transfection System (Invitrogen, Carlsbad, Calif.) according to the manufacturer's protocol. […] Relative luciferase activity was measured as luciferase activity divided by β-galactosidase activity to normalize transfection efficiency.

[3] = test system: NF-κB, MAPK, and Akt signaling pathways; test: Immunoblot of NF-κB, MAPK and Akt signaling in LPS-stimulated RAW264.7 cells; assay type: cell-based, murine; conditions: ZAA 1 h, then LPS 30 min
Protocol: as §1, with “activities.” for “activities. Values are means±SD (n=4; *p<0.05 and **p<0.01 vs. LPS-stimulated cells).”
Cell lysates were analyzed by immunoblotting with primary antibodies against pIKKα/β, IkBα, pNF-κBp65, pERK, ERK, pJNK, JNK, pAkt, Akt, pp38, p38, and β-actin, followed by appropriate secondary antibodies Immunoreactive protein bands were detected using an enhanced chemiluminescence (ECL) kit (Pierce Biotechnology, Rockford, Ill.). […]

[4] = test system: LPS-induced TNF-α and IL-6 production; test: ELISA of cytokines in LPS-treated RAW264.7 cells; assay type: cell-based, murine; conditions: ZAA 1 h, LPS 0.25 or 0.5 μg/mL
[5] = test system: LPS-induced TNF-α and IL-6 production; test: Plasma cytokines in LPS-injected mice; assay type: in vivo; conditions: ZAA i.p. 30 min before LPS 4 mg/kg i.p., 6 h
[6] = test system: S. choleraesuis-induced TNF-α and IL-6 production; test: Plasma cytokines in S. choleraesuis-infected mice; assay type: in vivo; conditions: C57BL/6 mice; ZAA 10 mg/kg, oral S. choleraesuis 2×10^9 CFU/mouse; 6 h
LPS-induced lethality = test: LPS-induced sepsis model (lethality); assay type: in vivo; conditions: C3H/HeN mice; ZAA 2 or 10 mg/kg i.p., LPS 20 mg/kg i.p.
Protocol: The mice were monitored every 2-4 h until all C3H/HeN mice in the ZAA-untreated and LPS-treated group expired.

human neutrophils = conditions: reference (9), cited from earlier work
[7] = test system: LPS-induced NO production; conditions: reference (10); cited from earlier work
[8] = test system: LPS-induced lung and renal injury; test: LPS-induced lung and renal injury in mice; conditions: ZAA 20 mg/kg i.p., LPS 4 mg/kg i.p., 10 h
Protocol: After 10 h, mice were sacrificed, and their lung and kidney tissues were removed. […] (B) The number of infiltrated PMNs in each alveolus was observed by light microscopy (original magnification ×200). The number of PMNs was counted in four randomly chosen fields per slide for each mouse and normalized to the number of alveoli. […] Values shown in B-D are means ±SD (n=10; **p<0.01 and ***p<0.001).
The lung and kidney were embedded in paraffin, sectioned, and stained with hematoxylin and eosin. Serum samples were collected for determination of blood urea nitrogen (BUN) and serum creatinine levels.

S. choleraesuis [9] = test: S. choleraesuis-induced diarrhea model in mice
Protocol: (A and B) C57BL/6 mice that had been pretreated intraperitoneally with ZAA (2 or 10 mg/kg) or the vehicle for 30 min were orally administered with kanamycin-resistant S. choleraesuis (2×10^9 CFU/mouse). Diarrhea was scored after 2 days on a 0-3 scale (0=normal pellets, 1=slightly loose feces, 2=loose feces, and 3=watery diarrhea) (A). Body weight was recorded every 2 days for 2 weeks (n=9-12; **p<0.01 and ***p<0.001) (B). (C) Fecal samples were collected at 24-h intervals until 96 h after S. choleraesuis infection and assessed for viable bacterial CFU counts (n=10; **p<0.01 and ***p<0.001).
The pEGFP-N1 (ΔEGFP)-transformed S. choleraesuis (2×10^9 CFU/mouse) was orally administered to mice with or without oral pretreatment of ZAA (2 or 10 mg/kg). […] Fecal samples were collected at 24-h intervals until 96 h after S. choleraesuis infection. S. choleraesuis in the feces was quantified by plating serial dilutions of fecal samples on kanamycin-containing agar plates and counting colonies after overnight incubation at 37° C. Mice were monitored daily for symptoms of diarrhea and loss of body weight. Diarrhea was defined according to a diarrhea score of 0-3 (0=normal pellets, 1=slightly loose feces, 2=loose feces, and 3=watery diarrhea) as previously described (21).

S. choleraesuis [10] = test: S. choleraesuis growth in LB broth (absorbance at 600 nm); conditions: 24 or 48 h, various concentrations, listed as ZAA
Protocol: S. choleraesuis was cultured in LB broth for 24 or 48 h in the presence of various concentrations of ZAA or ampicillin that served as a positive control. Bacterial growth was assessed by measurement of the absorbance at 600 nm and is expressed as means±SD of at least three independent experiments.

[11] = TLR4 signaling-defective C3H/HeJ mice

## C=C(CC[C@@H](C)[C@H]1CC[C@H]2C3=C(C(=O)C[C@]12C)[C@@]1(C)CCC(=O)[C@@H](C)[C@@H]1CC3=O)C(C)C(=O)O (stereo partly shown) [No. 1, Zhankuic acid A]
COX2 and iNOS
  level of COX2 induced by LPS: downregulated
  level of iNOS induced by LPS: downregulated
NO production; then IFN-γ 50 ng/mL 24 h
  IFN-γ-induced NO production: inhibited
NO production; then LPS 0.5 μg/mL 24 h
  LPS-induced NO production: inhibited
[1]
  cytotoxic effects (MTS and SRB): did not exert any cytotoxic effects
[2]
  NF-κB-mediated transactivation (relative luciferase activity): inhibited
[3]
  LPS-induced phosphorylation of ERK, JNK, p38, and Akt: inhibited
  LPS-stimulated NF-κBp65 phosphorylation: significantly prevented
[4]; supernatant after 4 h
  LPS-induced TNF-α production: inhibited
[4]; supernatant after 6 h
  LPS-induced IL-6 production: inhibited
[5]; C3H/HeN mice
  plasma IL-6 production: significantly reduced
  plasma TNF-α production: significantly reduced
[5]; [11]
  plasma IL-6 production: a much weaker response
  plasma TNF-α production: a much weaker response
[6]
  S. choleraesuis-induced IL-6 production: effectively suppressed
  S. choleraesuis-induced TNF-α production: effectively suppressed
LPS-induced lethality
  protection against LPS-induced lethality (survival): significantly protected
Human neutrophils; fMLP- or PMA-activated peripheral human neutrophils
  ROS production: inhibits
Human neutrophils; human neutrophils
  cytotoxicity: without exerting significant cytotoxicity
Human neutrophils
  inflammatory responses by human neutrophils: prevent inflammatory responses
[7]
  LPS-induced NO production: inhibiting
[8]; C3H/HeN mice
  LPS-induced pulmonary accumulation of PMNs: significantly prevented
  extent of LPS-induced glomerulonephritis: significantly reduced
[8]
  BUN level: markedly reduced
  serum creatinine level: markedly reduced
S. choleraesuis [9]; 96 h after bacterial infection, ZAA 10 mg/kg
  fecal bacterial level: undetectable
S. choleraesuis [9]; C57BL/6 mice, ZAA 10 mg/kg
  body weight loss: dramatically attenuated
  time to return to normal body weight: ≤ 2 weeks
S. choleraesuis [9]; C57BL/6 mice, ZAA 2 or 10 mg/kg, 24-96 h, dose- and time-dependent
  fecal bacterial load: dramatically reduced
S. choleraesuis [9]; C57BL/6 mice, ZAA 2 or 10 mg/kg, scored after 2 days, 0-3 scale
  diarrhea score: reduced
S. choleraesuis [10]
  direct effect on growth / replication of Salmonella: cannot inhibit; also recorded: no direct inhibitory effects
